Reference: publication PMC8151276, “An Integrated Approach toward NanoBRET Tracers for Analysis of GPCR Ligand Engagement” (Molecules, 2021)
Each block holds one compound with its values, some of them ahead of it.

Legend:
Format in all cases: binding
GRM2 = biological target: T1, GRM2 (Homo sapiens, UniProt Q14416); assay: NanoBRET screen HiBiT-GRM2 in HEK293
T1 construct: purchased Promega (in-house HiBiT-GPCR construct library, NanoBRET)
Procedure: (§1) Each tracer candidate was screened across the entire library of HiBiT-GPCR constructs using NanoBRET as the detection modality. As depicted in Figure 4A, the specificity of interactions was evaluated through decrease in BRET due to competitive displacement of a bound tracer by excess parental compound. Each tracer was analyzed for binding to each HiBiT-GPCR fusion in the absence and in the presence of competing parental compound. Briefly, HEK293 cells were transfected with HiBiT-GPCR constructs diluted into promoterless DNA to reduce expression and maximize translocation to the cell surface. Each tracer candidate was then screened at concentrations of 1 μM and 0.1 μM across cells expressing these fusions. Cells were treated for 1.5 h with tracer either alone or in the presence of 20 μM competing parental compound (i.e., control). BRET was measured upon addition of purified LgBiT and subsequent complementation with HiBiT genetically fused to a GPCR. The specificity of interactions was assessed through a decrease in BRET signal due to competitive displacement of the bound tracer. To further gauge the robustness of these interactions, the fold response over the control (i.e., BRETtracer/BRETcontrol) was calculated. We chose a 1.5-fold response, which translates to ≥7-fold signal over noise as the minimal threshold required to score an interaction as positive. […]. Below we highlight the screening results obtained for our exemplary fluorescent tracers based on Clozapine, Amitriptyline and AZD1283.
(§2) HiBiT-GPCR DNA constructs were diluted in 10 mM Tris pH 8 to a final concentration of 0.01 μg/μL, arrayed in 96-well plates and stored at −20 °C. For transfection, HEK293 cells were suspended in Opti-MEM (without phenol red) supplemented with 2% fetal bovine serum (Seradigm) and 100 units/mL penicillin–streptomycin (Gibco) at a final concentration of 220,000 cells/mL and dispensed into white 96-well plates at 90 μL/well. Subsequent transfections and screens were carried using an Agilent Bravo Automated Liquid Handling Platform. First, the 96-well HiBiT DNA arrays were diluted 25-fold in Opti-MEM (without serum or phenol red) to a final concentration of 0.0004 μg/μL and 20 μL of the diluted DNAs were transferred into new 96-well plates. Next, promoterless carrier DNA (1 μg/μL) was diluted 25-fold (0.04 μg/μL) and then dispensed into the diluted arrays at 20 μL/well. Following brief mixing, Viafect transfection reagent (Promega) diluted 16-fold into Opti-MEM was dispensed into the plates at 40 μL/well. After mixing by pipetting, plates were incubated for 10 min on the pipetting station deck. The DNA-transfection reagent complexes were then added to plates containing cells. To facilitate the screen, 10 μL of DNA-transfection reagent complexes were added in duplicates to the top 4 and bottom 4 rows, resulting in two identical 48-well arrays per plate. Plates with transfected cells were incubated for 18–20 h at 37 °C/5% CO2. A screen of each tracer across the entire library using two different concentrations requires duplicate plates of transfected cells. Depending on the number of tracers being screened, transfections can be scaled up using the same ratios. The next day, for each tracer, four 20× screening solutions in tracer dilution buffer (Promega) were prepared: two duplicates at final concentration of 20 μM and two duplicates at a final concentration of 2 μM. A competing unmodified compound was added to one of each duplicate at a final concentration of 400 μM. The four resulting solutions were diluted 4-fold in Opti-MEM without serum or phenol red to generate 5× solutions (5 µM and 0.5 µM tracer +/− 100 μM competing compound). To screen the library, a BioTek MultiFlo FX liquid dispenser was used to dispense 22.5 µL of tracer solution to the top 4 rows and 22.5 µL tracer + competing compound solution to the 4 bottom rows. Plates were briefly mixed on an orbital shaker and incubated for 1.5 h at room temperature. […]

GABBR1 = biological target: T2, GABBR1 (Homo sapiens, UniProt Q9UBS5); assay: NanoBRET screen HiBiT-GABBR1 in HEK293
T2 construct: purchased Promega (in-house HiBiT-GPCR construct library, NanoBRET)
T2 sequence (Q9UBS5 15-961 limits assumed): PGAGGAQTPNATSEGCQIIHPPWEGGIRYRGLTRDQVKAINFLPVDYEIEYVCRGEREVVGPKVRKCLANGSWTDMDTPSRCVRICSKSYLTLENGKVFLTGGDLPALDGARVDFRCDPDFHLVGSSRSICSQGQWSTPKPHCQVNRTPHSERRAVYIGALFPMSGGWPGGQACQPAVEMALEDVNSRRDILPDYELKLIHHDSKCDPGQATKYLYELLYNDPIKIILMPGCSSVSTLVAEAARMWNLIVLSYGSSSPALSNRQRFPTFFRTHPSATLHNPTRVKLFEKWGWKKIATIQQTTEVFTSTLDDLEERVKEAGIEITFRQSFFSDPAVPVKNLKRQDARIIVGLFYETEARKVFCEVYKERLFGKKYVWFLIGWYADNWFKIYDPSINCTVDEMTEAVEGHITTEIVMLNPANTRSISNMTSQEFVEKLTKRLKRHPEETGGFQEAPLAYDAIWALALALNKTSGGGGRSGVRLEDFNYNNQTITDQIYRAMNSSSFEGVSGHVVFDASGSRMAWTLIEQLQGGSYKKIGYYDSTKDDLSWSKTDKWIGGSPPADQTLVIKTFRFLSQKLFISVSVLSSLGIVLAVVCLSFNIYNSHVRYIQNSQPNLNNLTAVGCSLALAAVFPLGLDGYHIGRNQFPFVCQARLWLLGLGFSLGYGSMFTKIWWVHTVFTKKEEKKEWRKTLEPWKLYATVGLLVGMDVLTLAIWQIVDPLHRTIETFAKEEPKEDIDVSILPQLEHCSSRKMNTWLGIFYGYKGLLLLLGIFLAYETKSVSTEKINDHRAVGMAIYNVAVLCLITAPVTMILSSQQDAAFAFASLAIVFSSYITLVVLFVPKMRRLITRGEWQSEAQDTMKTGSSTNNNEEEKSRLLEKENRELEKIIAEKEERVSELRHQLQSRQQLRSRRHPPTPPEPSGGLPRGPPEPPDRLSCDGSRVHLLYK
Procedure: as §1, §2

TACR2 = biological target: T3, TACR2 (Homo sapiens, UniProt P21452); assay: NanoBRET screen HiBiT-TACR2 in HEK293
T3 construct: purchased Promega (in-house HiBiT-GPCR construct library, NanoBRET)
T3 sequence (P21452 1-398): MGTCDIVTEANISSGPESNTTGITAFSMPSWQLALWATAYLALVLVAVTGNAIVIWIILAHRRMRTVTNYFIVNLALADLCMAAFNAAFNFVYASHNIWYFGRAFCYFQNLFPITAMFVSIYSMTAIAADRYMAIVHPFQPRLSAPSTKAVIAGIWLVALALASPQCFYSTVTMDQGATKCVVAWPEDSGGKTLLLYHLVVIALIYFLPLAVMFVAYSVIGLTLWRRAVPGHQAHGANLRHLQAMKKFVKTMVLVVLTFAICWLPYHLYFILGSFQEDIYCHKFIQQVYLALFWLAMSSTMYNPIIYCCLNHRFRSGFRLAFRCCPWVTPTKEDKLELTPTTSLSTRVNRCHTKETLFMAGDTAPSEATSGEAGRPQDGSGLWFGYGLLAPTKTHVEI
Procedure: as §1, §2

T1 sequence (Q14416 19-872): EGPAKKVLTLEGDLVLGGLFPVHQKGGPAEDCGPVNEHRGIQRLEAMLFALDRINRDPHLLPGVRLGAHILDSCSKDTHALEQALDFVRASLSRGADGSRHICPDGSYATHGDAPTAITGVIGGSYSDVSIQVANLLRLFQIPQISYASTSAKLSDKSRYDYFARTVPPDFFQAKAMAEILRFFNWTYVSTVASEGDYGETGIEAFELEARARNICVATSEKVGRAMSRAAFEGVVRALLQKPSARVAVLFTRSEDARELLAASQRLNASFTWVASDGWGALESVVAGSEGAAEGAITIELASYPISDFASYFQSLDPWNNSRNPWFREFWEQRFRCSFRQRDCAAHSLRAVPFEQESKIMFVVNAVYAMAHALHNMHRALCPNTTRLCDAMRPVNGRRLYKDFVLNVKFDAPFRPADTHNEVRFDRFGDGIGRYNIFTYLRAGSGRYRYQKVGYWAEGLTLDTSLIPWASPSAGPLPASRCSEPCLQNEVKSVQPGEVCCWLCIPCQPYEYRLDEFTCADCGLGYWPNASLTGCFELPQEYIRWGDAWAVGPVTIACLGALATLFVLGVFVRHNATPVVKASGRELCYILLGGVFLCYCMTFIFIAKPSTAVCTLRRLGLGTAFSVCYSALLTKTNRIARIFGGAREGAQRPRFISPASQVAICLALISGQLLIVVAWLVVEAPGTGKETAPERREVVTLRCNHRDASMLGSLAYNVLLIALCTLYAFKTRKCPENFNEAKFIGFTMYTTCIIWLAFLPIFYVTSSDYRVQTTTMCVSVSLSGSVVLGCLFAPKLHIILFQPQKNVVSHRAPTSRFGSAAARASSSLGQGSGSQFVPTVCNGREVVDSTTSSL

Structure (SMILES): Cc1cc2c(s1)Nc1ccccc1N=C2N1CCN(CCCNC(=O)CCOCCOCCOCCOCCNC(=O)CCc2ccc3n2[B-](F)(F)[N+]2=C(c4ccc[nH]4)C=CC2=C3)CC1 [Olanzapine-a-2-NB590]
- NanoBRET Fold Response (GRM2; GRM2, tracer 0.1μM): 1.00
- NanoBRET Fold Response (GRM2; GRM2, tracer 1μM): 1.01
- NanoBRET Fold Response (GABBR1; GABBR1, tracer 0.1μM): 0.94
- NanoBRET Fold Response (GABBR1; GABBR1, tracer 1μM): 1.20
- NanoBRET Fold Response (TACR2; TACR2, tracer 0.1μM): 1.01
- NanoBRET Fold Response (TACR2; TACR2, tracer 1μM): 0.88

Structure (SMILES): CN1CCN(C2=Nc3cc(Cl)ccc3Nc3ccc(CNC(=O)CCOCCOCCOCCOCCNC(=O)CCc4ccc5n4[B-](F)(F)[N+]4=C(c6ccc[nH]6)C=CC4=C5)cc32)CC1 [Clozapine-b-2-NB590]
- NanoBRET Fold Response (GRM2; GRM2, 0.1μM tracer): 1.01
- NanoBRET Fold Response (GRM2; GRM2, 1μM tracer): 1.04
- NanoBRET Fold Response (GABBR1; GABBR1, 0.1μM tracer): 0.93
- NanoBRET Fold Response (GABBR1; GABBR1, 1μM tracer): 1.38
- NanoBRET Fold Response (TACR2; TACR2, 0.1μM tracer): 0.97

- NanoBRET Fold Response (GRM2; 0.1μM tracer): 1.19
- NanoBRET Fold Response (GRM2; 1μM tracer): 1.00
- NanoBRET Fold Response (GABBR1; 0.1μM tracer): 1.44
- NanoBRET Fold Response (GABBR1; 1μM tracer): 1.44
- NanoBRET Fold Response (TACR2; 0.1μM tracer): 0.81
- NanoBRET Fold Response (TACR2; 1μM tracer): 0.91
Structure (SMILES): COc1ccc2c(n1)c(CCNC(C)=O)cn2CCNC(=O)CCc1ccc2n1[B-](F)(F)[N+]1=C(c3ccc[nH]3)C=CC1=C2 [Azamelatonin-1-NB590]

Structure (SMILES): O=C(CCc1ccc2n1[B-](F)(F)[N+]1=C(c3ccc[nH]3)C=CC1=C2)NCc1ccc(C(=O)NCCOCCOCCNCC(O)COc2cccc3ccccc23)cc1 (centres unmarked) [Propranolol-3-NB590]
- NanoBRET Fold Response (GRM2; GRM2, 0.1μM): 0.94
- NanoBRET Fold Response (GRM2; GRM2, 1μM): 1.05
- NanoBRET Fold Response (GABBR1; GABBR1, 0.1μM): 1.10
- NanoBRET Fold Response (GABBR1; GABBR1, 1μM): 1.05
- NanoBRET Fold Response (TACR2; TACR2, 0.1μM): 1.01
- NanoBRET Fold Response (TACR2; TACR2, 1μM): 1.01

- NanoBRET Fold Response (GRM2; GRM2, 0.1μM tracer): 1.03
- NanoBRET Fold Response (GRM2; GRM2, 1μM tracer): 1.01
- NanoBRET Fold Response (GABBR1; GABBR1, 0.1μM tracer): 0.96
- NanoBRET Fold Response (GABBR1; GABBR1, 1μM tracer): 1.33
- NanoBRET Fold Response (TACR2; TACR2, 0.1μM tracer): 1.02
- NanoBRET Fold Response (TACR2; TACR2, 1μM tracer): 0.89
Structure (SMILES): O=C(CCOCCOCCOCCOCCNC(=O)CCc1ccc2n1[B-](F)(F)[N+]1=C(c3ccc[nH]3)C=CC1=C2)NCCCN1CCN(C2=Nc3cc(Cl)ccc3Nc3ccccc32)CC1 [Clozapine-a-2-NB590]
